# Molecular target: T1, eNOS/Hb α interaction (Homo sapiens, UniProt P29474)
# T1 construct: purchased Origene
# T1 sequence (P29474 2-1203 limits assumed): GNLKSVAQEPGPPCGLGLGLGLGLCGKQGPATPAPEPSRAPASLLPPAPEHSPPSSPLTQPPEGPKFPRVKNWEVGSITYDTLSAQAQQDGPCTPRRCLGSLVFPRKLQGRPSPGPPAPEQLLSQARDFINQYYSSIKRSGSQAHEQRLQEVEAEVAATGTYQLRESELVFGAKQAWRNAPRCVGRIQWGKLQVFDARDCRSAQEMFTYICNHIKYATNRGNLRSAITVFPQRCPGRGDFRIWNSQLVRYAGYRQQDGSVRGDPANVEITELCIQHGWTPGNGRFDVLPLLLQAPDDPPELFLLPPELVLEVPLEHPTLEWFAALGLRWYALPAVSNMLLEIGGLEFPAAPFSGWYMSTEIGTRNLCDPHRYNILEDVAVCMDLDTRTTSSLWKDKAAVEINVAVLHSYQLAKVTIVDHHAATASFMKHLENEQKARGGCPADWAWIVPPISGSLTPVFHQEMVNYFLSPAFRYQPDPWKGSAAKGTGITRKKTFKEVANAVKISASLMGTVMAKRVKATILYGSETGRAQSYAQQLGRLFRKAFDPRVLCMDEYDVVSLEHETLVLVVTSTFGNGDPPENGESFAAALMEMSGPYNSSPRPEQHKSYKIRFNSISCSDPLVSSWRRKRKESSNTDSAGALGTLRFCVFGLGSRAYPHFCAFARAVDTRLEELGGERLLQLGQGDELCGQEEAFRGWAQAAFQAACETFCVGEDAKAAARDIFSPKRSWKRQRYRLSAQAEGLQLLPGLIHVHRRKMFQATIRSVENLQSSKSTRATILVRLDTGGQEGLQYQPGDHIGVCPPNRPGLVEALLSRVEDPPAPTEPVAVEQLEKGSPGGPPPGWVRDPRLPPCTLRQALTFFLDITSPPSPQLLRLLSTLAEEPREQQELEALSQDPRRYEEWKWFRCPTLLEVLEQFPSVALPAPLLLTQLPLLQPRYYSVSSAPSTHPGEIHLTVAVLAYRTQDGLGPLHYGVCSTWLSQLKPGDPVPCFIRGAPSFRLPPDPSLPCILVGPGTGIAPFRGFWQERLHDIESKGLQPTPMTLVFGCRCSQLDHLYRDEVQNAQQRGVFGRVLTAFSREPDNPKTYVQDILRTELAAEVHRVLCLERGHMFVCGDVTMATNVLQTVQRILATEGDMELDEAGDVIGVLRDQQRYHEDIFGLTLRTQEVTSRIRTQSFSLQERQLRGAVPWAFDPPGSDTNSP
# Experiment: Purified eNOS and Hb α protein interaction (co-immunoprecipitation, Western blot)
# Format: binding
# Description: Purified Flag-eNOS was purchased from Origene and isolated Hb α chains were generated as previously described^9. Co-immunoprecipitation studies were performed by incubating 1 μg of Flag-eNOS with 5 μmol/L of each peptide (tat-only, Scr X or Hb α X) for 30 minutes at 37° C. while shaking. Then, 1 μg of isolated Hb α chains were added to the Flag-eNOS/peptide complex for an additional 30 minutes at 37° C. shaking. Anti-Flag nickel beads, blocked with 1% bovine albumin serum for 1 hour, were added to each condition for an additional hour with agitation. Proteins were washed 3× with PBS for 15 minutes and purified protein-protein complexes were precipitated using a strong magnet. The nickel beads were incubated with 5×SDS PAGE buffer to elute proteins off the beads. Samples were subjected to Western blot analysis to determine peptide-induced disruption of Hb α and eNOS binding.
substance,measurement,setting,value
"Peptide LSFPTTKTYF (SEQ ID NO:2), first ten amino acids of the Hb α sequence, with HIV-tat tag YGRKKRRQRRR at the N-terminus [Hb α X]",eNOS/Hb α interaction,"5 μmol/L peptide, Flag-eNOS and purified Hb α chains",significantly disrupted
same,Inhibition of binding,purified Hb α and eNOS protein,> 90%
